{
  "source": "patent US11518764B2",
  "about": "“Substituted heteroaryls as inhibitors of the BCL6 BTB domain protein-protein interaction” (Ontario Institute for Cancer Research (OICR), priority 2018, dated 2022)",
  "key": {"[1]": {"test_system": "BCL6 reporter construct (3xBCL6-TK-Luc) in SuDHL4 cells", "assay": "Cell-based luciferase assay", "conditions": "Homo sapiens, SU-DHL-4, 48 h, read-out: Luciferase-Assay EC50, uM), SuDHL4-3xBCL6-TK-Luc cells, two days, high dose 10 uM", "in_short": "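SuDHL4 cells stably carrying a 3×BCL6-site TK-promoter firefly luciferase reporter, seeded at 15,000 cells/well, were dosed over a 10-point range (top 10 uM) and grown two days at 37 °C, 5% CO2. Luminescence then read after adding neolite reagent at room temperature.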"}, "Karpas422 cells": {"test_system": "Karpas422 cells", "assay": "Tumor cell growth inhibition assay", "assay_type": "cell-based", "conditions": "Homo sapiens, KARPAS-422, 144 h, read-out: Tumor Growth Inhibition in Karpas-422 (IC50, uM), Karpas422 cells, six days, ATPlite", "in_short": "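Karpas422 cells (2,000/well) in Alpha-MEM with 10% FBS dosed across 10 concentrations (top 5 uM) and grown six days at 37° C., 5% CO2. Viability read as ATPlite luminescence.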"}, "BCL6 BTB domain": {"biological_target": "BCL6 BTB domain (Homo sapiens (Human), UniProt P41182)", "assay": "Surface plasmon resonance (SPR) assay", "assay_type": "binding", "conditions": "BCL6 BTB domain captured on SA chip, single cycle kinetics"}},
  "note": "pKd: −log10 of the molar value.",
  "data": [
    {"smiles": "Cn1cnc2c(c(-c3cc(C(N)=O)c(O)c(F)c3F)cn2CC(=O)Nc2cc(N3C[C@H]4CC[C@@H](C3)N4CC(F)(F)F)ncc2Cl)c1=O", "note": "[Compound I-475]", "values": [
      {"measurement": "EC50", "setting": "[1]", "value": 0.484, "unit": "µM"},
      {"measurement": "IC50", "setting": "Karpas422 cells", "value": 0.576, "unit": "µM"},
      {"measurement": "pKd", "setting": "BCL6 BTB domain", "value": 7.30}
    ]},
    {"smiles": "Cn1cnc2c(c(-c3cc(Cl)c(O)c(C(N)=O)c3)cn2CC(=O)Nc2cc(N3C4CCC3CC4)ncc2Cl)c1=O", "note": "[Compound I-125]", "values": [
      {"measurement": "EC50", "setting": "[1]", "value": 3.76, "unit": "µM"},
      {"measurement": "IC50", "setting": "Karpas422 cells", "value": 0.407, "unit": "µM"},
      {"measurement": "pKd", "setting": "BCL6 BTB domain", "value": 7.52}
    ]},
    {"smiles": "CN(C)c1cc(NC(=O)Cn2cc(-c3cc(F)c(O)c(C(N)=O)c3)c3c(=O)n(C)cnc32)c(Cl)c(F)n1", "note": "[Compound I-423]", "values": [
      {"measurement": "EC50", "setting": "[1]", "value": 0.143, "unit": "µM"},
      {"measurement": "IC50", "setting": "Karpas422 cells", "value": 0.0391, "unit": "µM"},
      {"measurement": "pKd", "setting": "BCL6 BTB domain", "value": 8.30}
    ]},
    {"smiles": "Cc1nc2c(c(-c3cc(C(N)=O)c(O)c(F)c3F)cn2CC(=O)Nc2cc(N3CCN(C(C)C)C[C@@H]3C)ncc2Cl)c(=O)n1C", "note": "[Compound I-380]", "values": [
      {"measurement": "EC50", "setting": "[1]", "value": 0.59, "unit": "µM"},
      {"measurement": "IC50", "setting": "Karpas422 cells", "value": 0.478, "unit": "µM"},
      {"measurement": "pKd", "setting": "BCL6 BTB domain", "value": 7.25}
    ]},
    {"smiles": "Cn1cnc2c(c(-c3cc(Cl)c(O)c(C(N)=O)c3)cn2CC(=O)Nc2ccc(F)cc2Cl)c1=O", "note": "[Compound I-383]", "values": [
      {"measurement": "EC50", "setting": "[1]", "value": 2.44, "unit": "µM"},
      {"measurement": "IC50", "setting": "Karpas422 cells", "value": 1.05, "unit": "µM"},
      {"measurement": "pKd", "setting": "BCL6 BTB domain", "value": 6.34}
    ]},
    {"smiles": "COc1c(O)c(C(N)=O)cc(-c2cn(CC(=O)Nc3cc(N4CCOCC4)ncc3F)c3ncn(C)c(=O)c23)c1F", "note": "[Compound I-197]", "values": [
      {"measurement": "EC50", "setting": "[1]", "value": 4.01, "unit": "µM"},
      {"measurement": "IC50", "setting": "Karpas422 cells", "value": 10, "unit": "µM"},
      {"measurement": "pKd", "setting": "BCL6 BTB domain", "value": 6.66}
    ]},
    {"smiles": "Cc1nc2c(c(-c3cc(C(N)=O)c(O)c(F)c3F)cn2CC(=O)Nc2cc(N3CCOC[C@@H]3C)nc(F)c2Cl)c(=O)n1C", "note": "[Compound I-316]", "values": [
      {"measurement": "EC50", "setting": "[1]", "value": 0.243, "unit": "µM"},
      {"measurement": "IC50", "setting": "Karpas422 cells", "value": 0.376, "unit": "µM"},
      {"measurement": "pKd", "setting": "BCL6 BTB domain", "value": 7.62}
    ]},
    {"smiles": "C[C@H]1CN(CC2(C(F)(F)F)CC2)CCN1c1cc(NC(=O)Cn2cc(-c3cc(C(N)=O)c(O)c(F)c3F)c3c(=O)n(C)cnc32)c(Cl)cn1", "note": "[Compound I-377]", "values": [
      {"measurement": "EC50", "setting": "[1]", "value": 2.97, "unit": "µM"},
      {"measurement": "IC50", "setting": "Karpas422 cells", "value": 8.61, "unit": "µM"},
      {"measurement": "pKd", "setting": "BCL6 BTB domain", "value": 6.68}
    ]},
    {"smiles": "COCCN1CCN(c2cc(NC(=O)Cn3cc(-c4cc(F)c(O)c(C(N)=O)c4)c4c(=O)n(C)cnc43)c(Cl)c(F)n2)[C@@H](C)C1", "note": "[Compound I-448]", "values": [
      {"measurement": "EC50", "setting": "[1]", "value": 0.0483, "unit": "µM"},
      {"measurement": "IC50", "setting": "Karpas422 cells", "value": 0.0446, "unit": "µM"},
      {"measurement": "pKd", "setting": "BCL6 BTB domain", "value": 8.47}
    ]},
    {"smiles": "C[C@H]1CN(C2CCC2)CCN1c1cc(NC(=O)Cn2cc(-c3cc(Cl)c(O)c(C(N)=O)c3)c3c(=O)n(C)cnc32)c(Cl)cn1", "note": "[Compound I-358]", "values": [
      {"measurement": "EC50", "setting": "[1]", "value": 0.256, "unit": "µM"},
      {"measurement": "IC50", "setting": "Karpas422 cells", "value": 0.341, "unit": "µM"},
      {"measurement": "pKd", "setting": "BCL6 BTB domain", "value": 7.64}
    ]},
    {"smiles": "CN1CC2(CCN(c3cc(NC(=O)Cn4cc(-c5cc(F)c(O)c(C(N)=O)c5)c5c(=O)n(C)cnc54)c(Cl)cn3)C2)C1", "note": "[Compound I-484]", "values": [
      {"measurement": "EC50", "setting": "[1]", "value": 21.6, "unit": "µM"},
      {"measurement": "IC50", "setting": "Karpas422 cells", "value": 10, "unit": "µM"},
      {"measurement": "pKd", "setting": "BCL6 BTB domain", "value": 7.39}
    ]},
    {"smiles": "Cn1cnc2c(c(-c3cc(Cl)c(O)c(C(N)=O)c3)cn2CC(=O)Nc2cc(N3CCOCC3)c(F)cc2Cl)c1=O", "note": "[Compound I-195]", "values": [
      {"measurement": "EC50", "setting": "[1]", "value": 1.5, "unit": "µM"},
      {"measurement": "IC50", "setting": "Karpas422 cells", "value": 1.08, "unit": "µM"},
      {"measurement": "pKd", "setting": "BCL6 BTB domain", "value": 6.71}
    ]},
    {"smiles": "CN1C2CCC1CN(c1cc(NC(=O)Cn3cc(-c4cc(C(N)=O)c(O)c(F)c4F)c4c(=O)n(C)cnc43)c(Cl)cn1)C2", "note": "[Compound I-285]", "values": [
      {"measurement": "EC50", "setting": "[1]", "value": 1.6, "unit": "µM"},
      {"measurement": "IC50", "setting": "Karpas422 cells", "value": 1.6, "unit": "µM"},
      {"measurement": "pKd", "setting": "BCL6 BTB domain", "value": 6.99}
    ]},
    {"smiles": "CC(C1CC1)N1CCN(c2cc(NC(=O)Cn3cc(-c4cc(C(N)=O)c(O)c(F)c4F)c4c(=O)n(C)cnc43)c(Cl)cn2)[C@@H](C)C1", "note": "(stereo partly drawn) [Compound I-393]", "values": [
      {"measurement": "EC50", "setting": "[1]", "value": 0.266, "unit": "µM"},
      {"measurement": "IC50", "setting": "Karpas422 cells", "value": 0.222, "unit": "µM"},
      {"measurement": "pKd", "setting": "BCL6 BTB domain", "value": 7.47}
    ]},
    {"smiles": "Cn1cnc2c(c(-c3cc(Cl)c(O)c(C(N)=O)c3)cn2CC(=O)Nc2cc(N3CCC(F)C3)ncc2Cl)c1=O", "note": "(stereo not drawn) [Compound I-67]", "values": [
      {"measurement": "EC50", "setting": "[1]", "value": 0.296, "unit": "µM"},
      {"measurement": "IC50", "setting": "Karpas422 cells", "value": 0.267, "unit": "µM"},
      {"measurement": "pKd", "setting": "BCL6 BTB domain", "value": 7.85}
    ]}
  ]
}
